{
  "source": "patent US5264565A",
  "about": "“Nucleic acid encoding the D2 /Ml chimeric receptor” (Affymax Technologies, N.V., priority 1991, dated 1993)",
  "key": {"D2 /ml receptor": {"target": "D2 /ml receptor", "assay": "Competition binding assay with [3H]-spiperone, D2/ml chimeric receptor", "set-up": "species or system human", "conditions": "for Ki: D2/ml Receptor, 0.5 nM [3H]-spiperone, anti-log of mean log Ki, three experiments, Cheng-Prusoff", "protocol": "(§1) Cells were detached from culture flasks with EDTA, pelleted at 1,000×g and resuspended in 1× binding buffer (100 mM Tris; 120 mM NaCl; 5 mM KCl; 1 mM MgCl2; 2 mM CaCl2; 1.1 mM ascorbic acid; pH 7.4) at ~1×10^6 cells/ml. Cells were homogenized with a Polytron (Brinkman) and the crude membrane fraction was pelleted at 17,000× g for 10 min. […] Triplicate binding reactions were done in IX binding buffer for 30 min. at 37°, then stopped by filtration through glass-fiber filters (Skatron) that were pre-soaked in 0.1% polyethyleneimine, followed by a 5 sec. wash with ice cold 0.1× binding buffer. […] Competing ligands were all from Research Biochemicals Inc."}, "[1]": {"system": "non-transfected CHO cells", "assay": "[Ca+2]i assay (Fura-2) in non-transfected CHO cells"}, "D2(414) receptor [2]": {"target": "T1, D2(414) receptor (Homo sapiens, UniProt P14416)", "T1 sequence (P14416 1-414 isoform P14416-2)": "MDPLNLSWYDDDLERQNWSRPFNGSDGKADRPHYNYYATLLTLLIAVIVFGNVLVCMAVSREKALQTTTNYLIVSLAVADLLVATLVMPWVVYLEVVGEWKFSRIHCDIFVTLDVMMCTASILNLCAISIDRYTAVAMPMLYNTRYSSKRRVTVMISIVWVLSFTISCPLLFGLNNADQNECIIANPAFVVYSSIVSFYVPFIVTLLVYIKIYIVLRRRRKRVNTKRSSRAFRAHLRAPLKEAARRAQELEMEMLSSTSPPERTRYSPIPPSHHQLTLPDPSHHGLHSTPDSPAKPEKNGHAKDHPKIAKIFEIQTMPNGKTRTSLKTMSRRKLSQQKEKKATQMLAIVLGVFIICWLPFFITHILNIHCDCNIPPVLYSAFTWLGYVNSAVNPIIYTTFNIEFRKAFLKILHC", "conditions": "dopamine 100 μM, CHO cells expressing D2(414) receptor (FIG. 3A)"}, "D2 /ml chimeric receptor": {"system": "D2 /ml chimeric receptor", "conditions": "dopamine 0.1-1000 μM, CHO cells expressing D2/ml receptor (FIG. 3B)"}, "D2(414) receptor [3]": {"target": "T1, D2(414) receptor", "assay": "Competition binding assay with [3H]-spiperone, D2(414) receptor", "set-up": "expressed in transfected cells", "protocol": "as §1"}, "CHO cells": {"system": "CHO cells", "assay": "Radioligand specific binding in non-transfected CHO cells", "set-up": "species or system Chinese hamster", "conditions": "preliminary studies", "protocol": "Cells were detached from culture flasks with EDTA, pelleted at 1,000×g and resuspended in 1× binding buffer (100 mM Tris; 120 mM NaCl; 5 mM KCl; 1 mM MgCl2; 2 mM CaCl2; 1.1 mM ascorbic acid; pH 7.4) at ~1×10^6 cells/ml. Cells were homogenized with a Polytron (Brinkman) and the crude membrane fraction was pelleted at 17,000× g for 10 min. […] Triplicate binding reactions were done in IX binding buffer for 30 min. at 37°, then stopped by filtration through glass-fiber filters (Skatron) that were pre-soaked in 0.1% polyethyleneimine, followed by a 5 sec. wash with ice cold 0.1× binding buffer."}},
  "data": [
    {"smiles": "CCN1CCC[C@H]1CNC(=O)c1cc(S(N)(=O)=O)ccc1OC", "note": "[(-) Sulpiride]", "values": [
      {"measurement": "Ki", "setting": "D2 /ml receptor", "value": 45, "unit": "nM"}
    ]},
    {"smiles": "NCCc1ccc(O)c(O)c1", "note": "[Dopamine]", "values": [
      {"measurement": "Ki", "setting": "D2 /ml receptor", "value": 2100, "unit": "nM"},
      {"measurement": "[Ca+2]i", "setting": "[1]; dopamine 1 mM", "value": "unaltered"},
      {"measurement": "[Ca+2]i", "setting": "D2(414) receptor [2]", "value": "failed to alter"},
      {"measurement": "[Ca+2]i response", "setting": "D2 /ml chimeric receptor", "value": "elevated in a dose dependent manner"}
    ]},
    {"smiles": "CCCN(CCc1ccccc1)C1CCc2c(O)cccc2C1", "note": "(stereo not drawn) [N-0434]", "values": [
      {"measurement": "Ki", "setting": "D2 /ml receptor", "value": 27, "unit": "nM"}
    ]},
    {"smiles": "CN1CCc2cc(Cl)c(O)cc2[C@@H](c2ccccc2)C1", "note": "[SCH-23390]", "values": [
      {"measurement": "Ki", "setting": "D2 /ml receptor", "value": 3600, "unit": "nM"},
      {"measurement": "Difference in Ki between D2(414) and D2/ml receptor", "setting": "D2 /ml receptor; comparison of Ki at the two receptors, t-test", "value": "small"},
      {"measurement": "Ki", "setting": "D2(414) receptor [3]", "value": 2100, "unit": "nM"}
    ]},
    {"smiles": "Oc1cc2c(cc1O)C(c1ccccc1)CNCC2", "note": "(stereo not drawn) [SKF-38393]", "values": [
      {"measurement": "Ki", "setting": "D2 /ml receptor", "value": 36000, "unit": "nM"}
    ]},
    {"smiles": "O=C(CCCN1CCC2(CC1)C(=O)NCN2c1ccccc1)c1ccc(F)cc1", "note": "[[^3 H]-spiperone]", "values": [
      {"measurement": "Specific binding", "setting": "CHO cells", "value": "no detectable specific binding"}
    ]},
    {"smiles": "C[N+](C)(C)CCOC(N)=O", "note": "[carbachol]", "values": [
      {"measurement": "[Ca+2]i", "setting": "[1]; carbachol 100 μM", "value": "unaltered"}
    ]}
  ]
}
